Data from patent US12116614B2, “Methods for determining antibiotic sensitivity” (priority 2020, dated 2024).
“Also recorded” adds a separate entry of the source.

How the values were obtained:
NRel M. catarrhalis = conditions: released from dual-species biofilm by anti-rsPilA; cited from earlier work
[1] = test system: NRel versus Non-Associated NTHI
Source text: Applicant tested for this phenotype for either Amox/Clav or Trimethoprim/Sulfamethoxazole to determine when this sensitivity first appears and how long this NRel phenotype lasts (i.e. what is the window of opportunity in which to treat a patient with a biofilm disease?). Here, NRel are compared not to planktonic bacteria (due to their artificiality) but rather to “Non-Associated” bacteria which are those found in the supernatant above the biofilm but not associated with biofilm residence as this population represents those bacteria that naturally come off the biofilm or were never a part of the biofilm which is a normal aspect of the preferred bacterial lifestyle in nature. […] Box Legend: NRelAC—relative killing by Amox/Clav; NRel TS—relative killing by Trimethoprim/Sulfamethoxazole; open symbols are the same but for the non-associated populations of bacteria as now described in this legend. Data was generated with a murine anti-tip chimer antibody.
Box Legend: NRelAC—relative killing by Amox/Clav; NRel TS—relative killing by Trimethoprim/Sulfamethoxazole; open symbols are the same but for the non-associated populations of bacteria as now described in this legend. Data was generated with a murine anti-tip chimer antibody.

[2] = test system: NTHI (biofilm-resident, planktonic, anti-rsPilA NRel, anti-IHF NRel); assay: Antibiotic sensitivity of biofilm-resident, planktonic or NRel NTHI (2 h antibiotic exposure, CFU plating); format: cell-based, Nontypeable Haemophilus influenzae; conditions: for sensitivity to killing of anti-IHF NRel compared to planktonic NTHI / sensitivity to killing of anti-rsPilA NRel compared to planktonic NTHI: 2 h antibiotic at concentration killing ~20-25% of planktonic NTHI; for sensitivity to killing of time-matched anti-rsPilA NRel compared to planktonic NTHI: TMP-SMX 0.09 and 0.45 μg per ml, AMC 0.3 and 0.15 μg per ml
Procedure: Biofilms were established for 16 hr at 37° C. as described above. For biofilm-resident NTHI: biofilms were washed twice with DPBS and incubated in sBHI supplemented with the indicated antibiotics for at 37° C. 2 h. For planktonic NTHI: NTHI were incubated in sBHI for 3 hr as described above to reach log phase of growth, then diluted to the approximate concentration of either the anti-IHF (2×10^8 CFU/ml) or anti-rsPilA NRels (3×10^8 CFU/ml) to permit comparison between anti-IHF or anti-rsPilA NRels, (see FIG. 1). Planktonic NTHI were incubated with the indicated antibiotics at 37° C. for 2 hr. For NRel NTHI: anti-IHF or anti-rsPilA NRel, generated and collected as described above were incubated at 37° C. for 2 hr with the indicated antibiotics. CFU NTHI were determined by serial dilution and plating. Amoxicillin (Sigma-Aldrich, St. Louis, MO) and clavulanate (U.S. Pharmacopeia, Rockville, MD) were used at a ratio of 2:1. Trimethoprim (Sigma-Aldrich) and sulfamethoxazole (Santa Cruz Biotech, Dallas, TX) were used at a ratio of 1:5. […] All experiments were performed at least three times on separate days with two technical replicates for each treatment and control group.
To avoid excessive manipulation or dilution of NRel NTHI, and to permit direct comparison of equal numbers of planktonic and NRel, the planktonic cell density was adjusted to the same CFU per ml as the NRel population in each experiment as follows: NTHI were incubated statically to mid log phase growth then diluted to either 3×10^8 CFU/ml for comparison with anti-rsPilA NRel collected at 6 h, or to 2×10^8 CFU/ml for comparison with anti-IHF NRel collected at 15 min (see FIG. 1). Applicant then determined the concentrations of amoxicillin (Sigma-Aldrich, St. Louis, MO) and clavulanate (U.S. Pharmacopeia, Rockville, MD), or of trimethoprim (Sigma-Aldrich) and sulfamethoxazole (Santa Cruz Biotech, Dallas, TX) that killed approximately 25% of planktonic NTHI at each density. The same antibiotic concentrations were used for the anti-IHF or anti-rsPilA NRel, the density-matched (same CFU/ml) planktonic NTHI, and the adherent biofilm for each relevant experiment. […] Applicant then assessed killing of anti-IHF or anti-rsPilA NRel by concentrations of amoxicillin plus clavulanic acid (“augmentin”, AMC) or trimethoprim plus sulfamethoxazole (TMP-SMX) that killed 25% of the planktonic NTHI at the same density.
Anti-rsPilA or anti-IHF NRel were collected and sonicated as described above. After sonication for 2 min in a water bath sonicator to break up any NTHI aggregates, NRel or planktonic NTHI were incubated with the indicated antibiotics at 37° C. for 2 h, then serially diluted and plated on chocolate agar to quantify viable NTHI. To assay biofilm-resident NTHI, biofilms were established for 16 h at 37° C. as described above, washed twice with DPBS and incubated in sBHI supplemented with the indicated antibiotics at 37° C. After 2 h, biofilm-resident NTHI were collected by forceful pipetting, sonicated for 2 min and enumerated as described above. All experiments were performed at least three times on separate days with two or three technical replicates for each treatment and control group.

NRel NTHI = conditions: released from dual-species biofilm by anti-rsPilA; cited from earlier work
[3] = after exposure to antibodies against rsPilA

| Molecule | susceptibility of NRel M. catarrhalis compared to those from growth on agar (NRel M. catarrhalis) | sensitivity of anti-DNABII NRel to killing compared to Non-Associated bacteria ([1]; NRel induced with murine anti-tip chimer antibody) | sensitivity of anti-rsPilA NRel to being killed compared to Non-Associated bacteria ([1]; NTHI released by antibody against rsPilA) | time at which greater sensitivity of anti-rsPilA NRel appears [1, 3] | time at which the sensitive phenotype of anti-rsPilA NRel remains [1, 3] [h] | sensitivity of biofilm-resident NTHI to killing ([2]; 16 h biofilm, 2 h antibiotic) | sensitivity to killing of anti-IHF NRel compared to biofilm-resident NTHI ([2]; NRel after 15 min anti-IHF, 2 h antibiotic) | sensitivity to killing of anti-IHF NRel compared to planktonic NTHI ([2]; NRel after 15 min anti-IHF) | sensitivity to killing of anti-IHF NRel compared to planktonic NTHI ([2]; NRel after 15 min anti-IHF, listed as TMP-SMX) | sensitivity to killing of anti-rsPilA NRel compared to biofilm-resident NTHI ([2]; NRel after 6 h anti-rsPilA, 2 h antibiotic) | sensitivity to killing of anti-rsPilA NRel compared to planktonic NTHI ([2]; NRel after 6 h anti-rsPilA) | sensitivity to killing of anti-rsPilA NRel compared to planktonic NTHI ([2]; NRel after 6 h anti-rsPilA, listed as TMP-SMX) | sensitivity to killing of time-matched anti-rsPilA NRel compared to planktonic NTHI ([2]; NRel collected after 2 h, listed as TMP-SMX) | sensitivity to killing of time-matched anti-rsPilA NRel compared to planktonic NTHI ([2]; NRel collected after 2 h, listed as TMP/SMX) | sensitivity to killing of time-matched anti-IHF NRel compared to planktonic NTHI ([2]; NRel collected after 2 h, TMP-SMX 0.94 and 4.7 μg/ml, AMC 2.5 and 1.25 μg/ml) | susceptibility of NRel NTHI compared to those from growth on agar (NRel NTHI) |
| --- | --- | --- | --- | --- | --- | --- | --- | --- | --- | --- | --- | --- | --- | --- | --- | --- |
| CC[C@H]1OC(=O)[C@H](C)[C@@H](O[C@H]2C[C@@](C)(OC)[C@@H](O)[C@H](C)O2)[C@H](C)[C@@H](O[C@@H]2O[C@H](C)C[C@H](N(C)C)[C@H]2O)[C@](C)(OC)C[C@@H](C)C(=O)[C@H](C)[C@@H](O)[C@]1(C)O [clarithromycin] | more susceptible | – | – | – | – | – | – | – | – | – | – | – | – | – | – | – |
| trimethoprim and sulfamethoxazole [T/S] | – | as but not more sensitive | significantly greater sensitivity | approximately one | ≥ 6 | minimal sensitivity | significantly more sensitive | only equally as sensitive | only equally as sensitive | significantly more sensitive | significantly more sensitive; also recorded: significantly greater | significantly greater | significantly more susceptible | significantly more sensitive | only equally as sensitive; also recorded: equally susceptible | more susceptible |
